Measurements reported in patent US7807701B2, “Dibenzylamine compounds and pharmaceutical use thereof” (Japan Tobacco Inc., priority 2002, dated 2010).
Where a name gives a salt, the structure may show the parent alone.

Each compound was assayed against T1, CETP (Homo sapiens, UniProt P11597) (assay: Inhibitory effect in vitro on CETP activity in total plasma). Conditions: plasma of healthy subject with [3H]CE-HDL3, 37° C., 4 hr; average values.
T1 construct: The donor lipoprotein obtained above was added to plasma of healthy subject; from tissue; host or cells: whole plasma of healthy subject
T1 sequence (P11597 18-493): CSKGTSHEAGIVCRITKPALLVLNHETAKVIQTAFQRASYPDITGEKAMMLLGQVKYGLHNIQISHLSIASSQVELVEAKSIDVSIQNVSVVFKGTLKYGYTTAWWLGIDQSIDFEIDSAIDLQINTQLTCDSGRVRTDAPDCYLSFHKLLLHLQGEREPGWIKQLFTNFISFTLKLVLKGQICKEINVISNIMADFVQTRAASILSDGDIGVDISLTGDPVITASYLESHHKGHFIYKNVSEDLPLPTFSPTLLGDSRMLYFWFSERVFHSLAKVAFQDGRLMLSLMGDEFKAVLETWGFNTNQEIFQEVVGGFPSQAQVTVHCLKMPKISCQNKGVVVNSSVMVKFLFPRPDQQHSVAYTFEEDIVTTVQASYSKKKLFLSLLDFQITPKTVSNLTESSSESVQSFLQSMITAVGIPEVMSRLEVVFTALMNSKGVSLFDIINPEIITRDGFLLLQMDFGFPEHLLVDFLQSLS
Type: biochemical
Description: Potassium bromide (KBr) was added to plasma (40 mL) of healthy subject and the mixture was adjusted to have a specific density d=1.125 g/mL. The mixture was subjected to density gradient centrifugation (227,000×g, 4° C., 17 hr) and a fraction showing a specific density of d>1.125 g/mL (HDL3 fraction) was harvested. The obtained fraction was dialyzed against PBS solution [10 mmol/L Na2HPO4; 10 mmol/L NaH2PO4; 0.15 mol/L NaCl; […] (pH 7.4)]. Then, tritium-labeled cholesterol (37 MBq) was dissolved in 95% ethanol, gradually added to the above-mentioned HDL3 fraction with stirring and incubated at 37° C. for 18 hr. [By this operation, tritium-labeled cholesterol was esterified by the action of lecithin acyl transferase (LCAT) present on the HDL3 surface and taken up into HDL3 as tritium-labeled cholesteryl ester ([^3H]CE)]. After incubation, KBr was added, the mixture was adjusted to have a specific density d=1.21 g/mL, subjected to density gradient centrifugation (227,000×g, 4° C., 17 hr) and a fraction of specific density […] was harvested. The obtained fraction was dialyzed against the aforementioned PBS solution to give HDL3 incorporating [^3H]CE ([^3H]CE-HDL3, specific density: 1.125<d<1.21, specific activity: 10,000 dpm/μL), which was used as a donor lipoprotein.
The donor lipoprotein obtained above was added to plasma of healthy subject to prepare a [^3H]CE-HDL3-containing plasma (1,000 dpm/μL). The compound was dissolved in dimethyl formamide. A solution of the compound or a solvent alone (2 μL) and the [^3H]CE-HDL3-containing plasma (100 μL) were added into a microtube, and this was incubated at 37° C. or 4° C. for 4 hr. After ice-cooling, TBS solution [100 μL, 20 mmol/L Tris; 0.15 mol/L NaCl (pH 7.4)] containing 1 mol/L magnesium chloride and 2% dextran sulfate was added to each microtube and the mixture was thoroughly stirred. After keeping at 4° C. for 30 min, the mixture was centrifuged (10,000×g, 4° C., 10 min), and the radioactivity in the obtained supernatant (HDL fraction) was measured with a scintillation counter. […] The concentration of the compound necessary for inhibiting the CETP activity by 50% was calculated as an IC50 value.

Row | IC50 [nM] | SMILES
1 | 530 | CCN(C[C@H]1CC[C@H](C(=O)O)CC1)c1cc2c(cc1CN(Cc1cc(C(F)(F)F)cc(C(F)(F)F)c1)c1nnn(CC)n1)CCCC2 [Example 99, trans-4-{[N-(3-{[N′-[3,5-bis(trifluoromethyl)benzyl]-N′-(2-ethyl-2H-tetrazol-5-yl)amino]methyl}-5,6,7,8-tetrahydronaphthalen-2-yl)-N-ethylamino]methyl}cyclohexanecarboxylic acid hydrochloride]
2 | 760 | CCN(C[C@H]1CC[C@H](C(=O)O)CC1)c1cc2c(cc1CN(Cc1cc(C(F)(F)F)cc(C(F)(F)F)c1)c1nnn(CC)n1)CCC2 [Example 93, trans-4-{[N-(6-{[N′-[3,5-bis(trifluoromethyl)benzyl]-N′-(2-ethyl-2H-tetrazol-5-yl)amino]methyl}indan-5-yl)-N-ethylamino]methyl}cyclohexanecarboxylic acid hydrochloride]
3 | 430 | CCN(CCC(C)(C)CC(=O)O)c1cc2c(cc1CN(Cc1cc(C(F)(F)F)cc(C(F)(F)F)c1)c1noc(C)n1)CCC2 [Example 103, 5-[N-(6-{[N′-[3,5-bis(trifluoromethyl)benzyl]-N′-(5-methyl-[1,2,4]oxadiazol-3-yl)amino]methyl}indan-5-yl)-N-ethylamino]-3,3-dimethylpentanoic acid hydrochloride]
4 | 700 | CCN(C[C@H]1CC[C@H](C(=O)OC)CC1)c1cc2c(cc1CN(Cc1cc(C(F)(F)F)cc(C(F)(F)F)c1)c1ccn(C)n1)CCCC2 [Example 42, methyl trans-4-{[N-(3-{[N′-[3,5-bis(trifluoromethyl)benzyl]-N′-(1-methyl-1H-pyrazol-3-yl)amino]methyl}-5,6,7,8-tetrahydronaphthalen-2-yl)-N-ethylamino]methyl}cyclohexanecarboxylate hydrochloride]
5 | 440 | CCN(C[C@H]1CC[C@H](C(=O)O)CC1)c1cc2c(cc1CN(Cc1cc(C(F)(F)F)cc(C(F)(F)F)c1)c1cc(C)no1)CCCC2 [Example 71, trans-4-{[N-(3-{[N′-[3,5-bis(trifluoromethyl)benzyl]-N′-(3-methylisoxazol-5-yl)amino]methyl}-5,6,7,8-tetrahydronaphthalen-2-yl)-N-ethylamino]methyl}cyclohexanecarboxylic acid hydrochloride]
6 | 890 | CCN(CCCCC(=O)O)c1cc2c(cc1CN(Cc1cc(C#N)cc(C(F)(F)F)c1)c1cc(C)no1)CCCC2 [Example 79, 5-[N-(3-{[N′-(3-cyano-5-trifluoromethylbenzyl)-N′-(3-methylisoxazol-5-yl)amino]methyl}-5,6,7,8-tetrahydronaphthalen-2-yl)-N-ethylamino]pentanoic acid hydrochloride]
7 | 941 | CCN(CCCCC(=O)O)c1ccc(C(F)(F)F)cc1CN(Cc1cc(C(F)(F)F)cc(C(F)(F)F)c1)c1nnn(C)n1 [Example 86, 5-[N-(2-{[N′-[3,5-bis(trifluoromethyl)benzyl]-N′-(2-methyl-2H-tetrazol-5-yl)amino]methyl}-4-trifluoromethylphenyl)-N-ethylamino]pentanoic acid hydrochloride]
8 | 360 | CCN(C[C@H]1CC[C@H](C(=O)O)CC1)c1cc2c(cc1CN(Cc1cc(C(F)(F)F)cc(C(F)(F)F)c1)c1ccn(C)n1)CCCC2 [Example 44, trans-4-{[N-(3-{[N′-[3,5-bis(trifluoromethyl)benzyl]-N′-(1-methyl-1H-pyrazol-3-yl)amino]methyl}-5,6,7,8-tetrahydronaphthalen-2-yl)-N-ethylamino]methyl}cyclohexanecarboxylic acid hydrochloride]
9 | 870 | CCN(CCCCC(=O)O)c1cc2c(cc1CN(Cc1cc(C#N)cc(C(F)(F)F)c1)c1ccn(C)n1)CCCC2 [Example 66, 5-[N-(3-{[N′-(3-cyano-5-trifluoromethylbenzyl)-N′-(1-methyl-1H-pyrazol-3-yl)amino]methyl}-5,6,7,8-tetrahydronaphthalen-2-yl)-N-ethylamino]pentanoic acid hydrochloride]
10 | 640 | CCN(CCCCC(=O)OC)c1cc2c(cc1CN(Cc1cc(C(F)(F)F)cc(C(F)(F)F)c1)c1ccn(C)n1)CCCC2 [Example 63, methyl 5-[N-(3-{[N′-[3,5-bis(trifluoromethyl)benzyl]-N′-(1-methyl-1H-pyrazol-3-yl)amino]methyl}-5,6,7,8-tetrahydronaphthalen-2-yl)-N-ethylamino]pentanoate hydrochloride]
11 | 770 | CCN(CCCCC(=O)OC)c1cc2c(cc1CN(Cc1cc(C#N)cc(C(F)(F)F)c1)c1ccn(C)n1)CCC2 [Example 55, methyl 5-[N-(6-{[N′-(3-cyano-5-trifluoromethylbenzyl)-N′-(1-methyl-1H-pyrazol-3-yl)amino]methyl}indan-5-yl)-N-ethylamino]pentanoate hydrochloride]

Second part, the compound before the results:

Row | SMILES | IC50 [nM]
12 | CCN(C[C@H]1CC[C@H](CC(=O)O)CC1)c1cc2c(cc1CN(Cc1cc(C(F)(F)F)cc(C(F)(F)F)c1)c1nnn(C)n1)OC(F)(F)C(F)(F)O2 [Example 137, trans-(4-{[N-(7-{[N′-[3,5-bis(trifluoromethyl)benzyl]-N′-(2-methyl-2H-tetrazol-5-yl)amino]methyl}-2,2,3,3-tetrafluoro-2,3-dihydrobenzo[1,4]dioxin-6-yl)-N-ethylamino]methyl}cyclohexyl)acetic acid hydrochloride] | 140
13 | CCN(CCC(C)(C)CC(=O)O)c1ccc(OC(F)(F)F)cc1CN(Cc1cc(C(F)(F)F)cc(C(F)(F)F)c1)c1nnn(C)n1 [Example 104, 5-[N-(2-{[N′-[3,5-bis(trifluoromethyl)benzyl]-N′-(2-methyl-2H-tetrazol-5-yl)amino]methyl}-4-trifluoromethoxyphenyl)-N-ethylamino]-3,3-dimethylpentanoic acid hydrochloride] | 350
14 | CCN(C[C@H]1CC[C@H](C(=O)O)CC1)c1ccc(OC(F)(F)F)cc1CN(Cc1cc(C(F)(F)F)cc(C(F)(F)F)c1)c1ccc(C)cc1 [Example 127, trans-4-{[N-(2-{[N′-[3,5-bis(trifluoromethyl)benzyl]-N′-(p-tolyl)amino]methyl}-4-trifluoromethoxyphenyl)-N-ethylamino]methyl}cyclohexanecarboxylic acid hydrochloride] | 370
15 | CCN(C[C@H]1CC[C@H](C(=O)O)CC1)c1cc2c(cc1CN(Cc1cc(C#N)cc(C(F)(F)F)c1)c1nnn(C)n1)CCCC2 [Example 68, trans-4-{[N-(3-{[N′-(3-cyano-5-trifluoromethylbenzyl)-N′-(2-methyl-2H-tetrazol-5-yl)amino]methyl}-5,6,7,8-tetrahydronaphthalen-2-yl)-N-ethylamino]methyl}cyclohexanecarboxylic acid hydrochloride] | 280
16 | CCN(C[C@H]1CC[C@H](CCC(=O)O)CC1)c1ccc(OC(F)(F)F)cc1CN(Cc1cc(C(F)(F)F)cc(C(F)(F)F)c1)c1nnn(C)n1 [Example 135, trans-3-(4-{[N-(2-{[N′-[3,5-bis(trifluoromethyl)benzyl]-N′-(2-methyl-2H-tetrazol-5-yl)amino]methyl}-4-trifluoromethoxyphenyl)-N-ethylamino]methyl}cyclohexyl)propionic acid hydrochloride] | 220
17 | CCN(C[C@H]1CC[C@H](C(=O)O)CC1)c1ccc(OC(F)(F)F)cc1CN(Cc1cc(Cl)cc(Cl)c1)c1nnn(C)n1 [Example 129, trans-4-{[N-(2-{[N′-(3,5-dichlorobenzyl)-N′-(2-methyl-2H-tetrazol-5-yl)amino]methyl}-4-trifluoromethoxyphenyl)-N-ethylamino]methyl}cyclohexanecarboxylic acid hydrochloride] | 610
18 | CCN(C[C@H]1CC[C@H](C(=O)O)CC1)c1ccc(OC(F)(F)F)cc1CN(Cc1cc(Cl)cc(C(F)(F)F)c1)c1nnn(C)n1 [Example 131, trans-4-{[N-(2-{[N′-(3-chloro-5-trifluoromethylbenzyl)-N′-(2-methyl-2H-tetrazol-5-yl)amino]methyl}-4-trifluoromethoxyphenyl)-N-ethylamino]methyl}cyclohexanecarboxylic acid hydrochloride] | 170
